Experimental findings from patent US6936585B2, “Corticotropin releasing factor 2 receptor agonists” (priority 2002, dated 2005) are described below.

Each structure is given as a SMILES string. Peptide text beside a SMILES is read from it.

As a reminder, the Emax is the size of the effect at its maximum, as opposed to the concentration needed.

The target of assay [1] is T1, CRF2R (Homo sapiens, UniProt Q13324).
T1 sequence (Q13324 1-411): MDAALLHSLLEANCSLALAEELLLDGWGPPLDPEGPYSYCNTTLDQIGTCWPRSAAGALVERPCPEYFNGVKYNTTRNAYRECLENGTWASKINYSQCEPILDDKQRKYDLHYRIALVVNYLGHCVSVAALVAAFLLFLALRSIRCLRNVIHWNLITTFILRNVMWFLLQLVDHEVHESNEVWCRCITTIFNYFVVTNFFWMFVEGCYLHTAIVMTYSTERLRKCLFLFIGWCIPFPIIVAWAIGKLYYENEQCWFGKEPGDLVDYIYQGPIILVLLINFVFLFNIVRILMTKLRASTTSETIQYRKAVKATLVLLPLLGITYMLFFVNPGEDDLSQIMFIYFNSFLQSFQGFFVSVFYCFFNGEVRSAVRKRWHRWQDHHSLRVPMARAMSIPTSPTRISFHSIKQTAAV
In words: CRF2R agonist activation (EC50 / Emax), called comparative CRF binding. To be noted: read-out: CRF2R Emax. Format: cell-based. Put shortly: (§1)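 Cells expressing full-length human CRF1R or CRF2R were exposed to peptide or vehicle control, and receptor activation was gauged as cAMP induction. cAMP was measured in cell lysates or via a cAMP-responsive element driving a reporter gene such as luciferase, CAT, GFP or alkaline phosphatase.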

Assay [2] deals with T2, CRF1R (Homo sapiens, UniProt P34998).
T2 sequence (P34998 24-415): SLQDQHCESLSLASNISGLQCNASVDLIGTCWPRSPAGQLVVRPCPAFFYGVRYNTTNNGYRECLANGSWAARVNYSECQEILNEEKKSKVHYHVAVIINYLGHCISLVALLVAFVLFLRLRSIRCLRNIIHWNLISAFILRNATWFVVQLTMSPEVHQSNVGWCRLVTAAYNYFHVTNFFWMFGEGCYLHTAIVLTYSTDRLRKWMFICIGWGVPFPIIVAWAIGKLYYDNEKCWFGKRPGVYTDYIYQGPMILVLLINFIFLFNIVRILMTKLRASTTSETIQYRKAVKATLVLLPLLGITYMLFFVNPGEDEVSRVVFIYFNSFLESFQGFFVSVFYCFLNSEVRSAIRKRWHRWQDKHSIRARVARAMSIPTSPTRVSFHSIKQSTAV
In words: CRF1R agonist activation (EC50 / Emax), called comparative CRF binding. Type of assay: cell-based. The settings on record: read-out: CRF1R Emax. Put shortly: as §1

Turning to `CC[C@H](C)[C@H](N)C(=O)N[C@H](C(=O)N[C@@H](CC(C)C)C(=O)N[C@@H](CO)C(=O)N[C@@H](CC(C)C)C(=O)N[C@@H](CC(=O)O)C(=O)N[C@H](C(=O)N1CCC[C@H]1C(=O)N[C@H](C(=O)NCC(=O)N[C@@H](CC(C)C)C(=O)N[C@@H](CC(C)C)C(=O)N[C@@H](CCC(N)=O)C(=O)N[C@H](C(=O)N[C@@H](CC(C)C)C(=O)N[C@@H](CC(C)C)C(=O)N[C@@H](CCC(=O)O)C(=O)N[C@@H](CCC(N)=O)C(=O)N[C@@H](CCC(=O)O)C(=O)N[C@@H](CCCCN)C(=O)N[C@@H](CCC(N)=O)C(=O)N[C@@H](CCCNC(=N)N)C(=O)N[C@@H](C)C(=O)N[C@@H](C)C(=O)N[C@@H](CCCNC(=N)N)C(=O)N[C@@H](CCC(=O)O)C(=O)N[C@@H](CCC(N)=O)C(=O)N[C@@H](C)C(=O)N[C@H](C(=O)N[C@H](C(=O)N[C@@H](CC(N)=O)C(=O)N[C@@H](C)C(=O)N[C@@H](CCCNC(=N)N)C(=O)N[C@H](C(=O)N[C@@H](CC(C)C)C(=O)N[C@@H](C)C(=O)N[C@@H](CCCNC(=N)N)C(=O)N[C@H](C(N)=O)C(C)C)[C@@H](C)CC)[C@@H](C)O)[C@@H](C)O)[C@@H](C)CC)[C@@H](C)CC)C(C)C)C(C)C` [compound 115] (H-IVLSLDVPIGLLQILLEQEKQRAAREQATTNARILARV-NH2; N-terminus assumed), the Emax in assay [1] amounted to 98%; in assay [2], 7%.
On the same counts, the results for `CC[C@H](C)[C@H](N)C(=O)N[C@H](C(=O)N[C@@H](CC(C)C)C(=O)N[C@@H](CO)C(=O)N[C@@H](CC(C)C)C(=O)N[C@@H](CC(=O)O)C(=O)N[C@H](C(=O)N1CCC[C@H]1C(=O)N[C@H](C(=O)NCC(=O)N[C@@H](CC(C)C)C(=O)N[C@@H](CC(C)C)C(=O)N[C@@H](CCC(N)=O)C(=O)N[C@H](C(=O)N[C@@H](CC(C)C)C(=O)N[C@@H](CC(C)C)C(=O)N[C@@H](CCC(=O)O)C(=O)N[C@@H](CCC(N)=O)C(=O)N[C@H](C(=O)N[C@@H](CCCCN)C(=O)N[C@@H](C)C(=O)N[C@@H](CC(N)=O)C(=O)N[C@@H](C)C(=O)N[C@@H](C)C(=O)N[C@@H](CCCNC(=N)N)C(=O)N[C@@H](CCC(=O)O)C(=O)N[C@@H](CCC(N)=O)C(=O)N[C@@H](C)C(=O)N[C@H](C(=O)N[C@H](C(=O)N[C@H](C(=O)N[C@@H](C)C(=O)N[C@@H](CCCNC(=N)N)C(=O)N[C@H](C(=O)N[C@@H](CC(C)C)C(=O)N[C@@H](C)C(=O)N[C@@H](CCCNC(=N)N)C(=O)N[C@H](C(N)=O)C(C)C)[C@@H](C)CC)C(C)C)[C@@H](C)O)[C@@H](C)O)[C@@H](C)O)[C@@H](C)CC)[C@@H](C)CC)C(C)C)C(C)C` [compound 116] (H-IVLSLDVPIGLLQILLEQTKANAAREQATTVARILARV-NH2) are 26.4% and 4.8%.
Turning to `CC[C@H](C)[C@H](N)C(=O)N[C@H](C(=O)N[C@@H](CC(C)C)C(=O)N[C@@H](CO)C(=O)N[C@@H](CC(C)C)C(=O)N[C@@H](CC(=O)O)C(=O)N[C@H](C(=O)N1CCC[C@H]1C(=O)N[C@H](C(=O)NCC(=O)N[C@@H](CC(C)C)C(=O)N[C@@H](CC(C)C)C(=O)N[C@@H](CCC(N)=O)C(=O)N[C@H](C(=O)N[C@@H](CC(C)C)C(=O)N[C@@H](CC(C)C)C(=O)N[C@@H](CCC(=O)O)C(=O)N[C@@H](CCC(N)=O)C(=O)N[C@H](C(=O)N[C@@H](CCCCN)C(=O)N[C@@H](C)C(=O)N[C@@H](CCCNC(=N)N)C(=O)N[C@@H](C)C(=O)N[C@@H](C)C(=O)N[C@@H](CCCNC(=N)N)C(=O)N[C@@H](CCC(=O)O)C(=O)N[C@@H](CCC(N)=O)C(=O)N[C@@H](C)C(=O)N[C@H](C(=O)N[C@H](C(=O)N[C@@H](CC(N)=O)C(=O)N[C@@H](C)C(=O)N[C@@H](CCCNC(=N)N)C(=O)N[C@H](C(=O)N[C@@H](CC(C)C)C(=O)N[C@@H](C)C(=O)N[C@@H](CCCNC(=N)N)C(=O)N[C@H](C(N)=O)C(C)C)[C@@H](C)CC)[C@@H](C)O)[C@@H](C)O)[C@@H](C)O)[C@@H](C)CC)[C@@H](C)CC)C(C)C)C(C)C` [compound 117] (H-IVLSLDVPIGLLQILLEQTKARAAREQATTNARILARV-NH2), the Emax in assay [1] is 98.8%; in assay [2] it was 7.8%.
